Assay results as given in patent US12473283B2, “Compounds and their use” (Debiopharm International S.A., priority 2019, dated 2025).
In brackets after ≈: the same amount, converted by molar mass. Where two headings read alike, the source gives them in different places.

Experiments:
[1] = target: FabI enzyme from Escherichia coli (Escherichia coli, UniProt P0AEK4); experiment: Inhibition of FabI enzyme, rate of NADH consumption; type: biochemical
Experimental: (§1) Inhibition of FabI enzyme from Acinetobacter baumannii and Escherichia coli was tested by measuring the rate of NADH consumption (Δabsorbance at 340 nm/min) at 30° C. in 96-well plate format using an automated plate reader in the presence or absence of the test compounds. The assay mixture contained 100 mM Tris-HCl, pH 7.25 (A. baumannii) or 7.5 (E. coli), 100 mM ammonium acetate, 0.02% (A. baumannii) or 0.05% (E. coli) Pluronic F-68, 25 μM crotonyl ACP, 50 μM NADH, 25 pM (A. baumannii) or 50 pM (E. coli) recombinant FabI protein, and 7.5% DMSO. Test compounds were added at concentrations ranging from 0.17 to 10,000 nM in a final well volume of 100 μl. This dose-response inhibitory assay was performed using a 10-point, serial dilution series for each test compound. IC50 values for each test compound were assigned from logistical sigmoid curve-fitting of the inhibition dose response curves.

[2] = system: A. baumannii ATCC BAA1605; experiment: Broth microdilution MIC assay; type: cell-based; details: Acinetobacter baumannii, ATCCBAA1605; CA-MHB, 35° C., 20 hours
Experimental: (§2) The antibacterial activity of FabI inhibitors against select Gram-negative and Gram-positive bacterial species including susceptible and multi-drug resistant A. baumannii, E. coli, K. pneumoniae and S. aureus was tested using the broth microdilution Minimal Inhibitory Concentration (MIC) assay following CLSI guidelines for insoluble compounds. Test articles were serially diluted 2-fold in 100% dimethyl sulfoxide (DMSO) and then diluted 100-fold into cation adjusted Mueller-Hinton broth (CA-MHB) to achieve a 10-point test concentration range in 1% DMSO. Final compound concentrations were 0.016-8 μg/ml for S. aureus or 0.06-32 μg/ml for the Gram-negative species. MIC test plates were then prepared by transferring 100 μl of the final assay medium (test article in CA-MHB, 1% DMSO) into the appropriate wells of a sterile, low binding 96-well polystyrene plate. Direct colony suspension inoculums of the test strains were freshly prepared per CLSI guidelines, and the appropriate test wells were inoculated to achieve a final bacterial cell density of 5×10^5 CFU/ml. Growth control (no test article) and negative control (no bacterial inoculum) wells were also included. Exposure to light was minimized during all stages of assay preparation. […] Bacterial growth was then determined by measuring the optical density at 600 nm (OD600) using a SpectraMax Plus plate-reader spectrophotometer.

S. aureus ATCC 29213 = experiment: Broth microdilution MIC assay; type: cell-based; details: Staphylococcus aureus, ATCC29213; CA-MHB, 35° C., 20 hours
Experimental: as §2

K. pneumoniae A6030827 = experiment: Broth microdilution MIC assay; type: cell-based; details: Klebsiella pneumoniae, CA-MHB, 35° C., 20 hours
Experimental: as §2

[3] = target: FabI enzyme from Acinetobacter baumannii (Acinetobacter baumannii, UniProt D0CAD5); experiment: Inhibition of FabI enzyme, rate of NADH consumption; type: biochemical
Experimental: as §1

E. coli AG100 = experiment: Broth microdilution MIC assay; type: cell-based; details: Escherichia coli, CA-MHB, 35° C., 20 hours
Experimental: as §2

[4] = recombinant FabI, 30° C., pH 7.5, read-out: E. coli Fabl IC50
[5] = recombinant FabI, 30° C., pH 7.25, read-out: A. baumannii Fabl IC50

FabI enzyme from Escherichia coli, sequence (P0AEK4 whole entry): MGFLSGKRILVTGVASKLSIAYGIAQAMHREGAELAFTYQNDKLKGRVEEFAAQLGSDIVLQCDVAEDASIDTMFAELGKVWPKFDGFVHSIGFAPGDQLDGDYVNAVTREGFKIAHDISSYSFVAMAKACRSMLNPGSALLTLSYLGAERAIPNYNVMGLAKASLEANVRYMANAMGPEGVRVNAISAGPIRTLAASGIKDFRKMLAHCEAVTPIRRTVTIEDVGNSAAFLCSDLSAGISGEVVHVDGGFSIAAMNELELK
FabI enzyme from Acinetobacter baumannii, sequence (D0CAD5 entry or part of it): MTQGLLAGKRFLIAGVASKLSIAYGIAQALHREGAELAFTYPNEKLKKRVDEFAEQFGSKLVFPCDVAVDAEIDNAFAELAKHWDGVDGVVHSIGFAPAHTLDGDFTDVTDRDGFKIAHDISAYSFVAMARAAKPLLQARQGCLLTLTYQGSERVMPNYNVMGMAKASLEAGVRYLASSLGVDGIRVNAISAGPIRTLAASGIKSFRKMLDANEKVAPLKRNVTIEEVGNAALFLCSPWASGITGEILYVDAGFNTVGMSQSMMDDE

Structure (SMILES) | IC50 [1, 4] | MIC [2] | MIC (S. aureus ATCC 29213) | MIC (K. pneumoniae A6030827) | IC50 [3, 5] | IC50 [3] | IC50 [1] | MIC (E. coli AG100)
Cc1c(CN(C)C(=O)/C=C/c2cnc3c(c2)NC[C@@H](N2C[C@@H](C)O[C@@H](C)C2)C(=O)N3)oc2ccccc12 (single isomer, unassigned) [Compound 21] | < 0.01 µM | ≤ 4 mg/L | ≤ 4 mg/L | 16 mg/L (≈ 31.8 µM) | – | – | – | –
Cc1oc2ccccc2c1CN(C)C(=O)/C=C/c1cnc2c(c1)NC[C@H](N1CC3(COC3)C1)C(=O)N2 (single isomer, unassigned) [Compound 35] | < 0.01 µM | ≤ 4 mg/L | ≤ 4 mg/L | – | < 0.01 µM | – | – | –
Cc1c(CN(C)C(=O)/C=C/c2cnc3c(c2)CC[C@H](N)C(=O)N3)oc2ccccc12.Cl (single isomer, unassigned) [Compound 71, hydrochloride] | – | – | – | – | – | < 0.01 µM | < 0.01 µM | –
Cc1c(CN(C)C(=O)C=Cc2cnc3c(c2)CCC(N)C(=O)N3)oc2cccc(OC3CCC(N)CC3)c12 (single isomer, unassigned) [Compound 86] | – | ≤ 4 mg/L | ≤ 4 mg/L | ≤ 4 mg/L | < 0.01 µM | – | – | ≤ 4 mg/L
Cc1c(CN(C)C(=O)/C=C/c2cnc3c(c2)CC[C@H](N(C)C)C(=O)N3)oc2ccccc12 (single isomer, unassigned) [Compound 96] | – | ≤ 4 mg/L | ≤ 4 mg/L | ≤ 4 mg/L | < 0.01 µM | – | – | 8 mg/L (≈ 18.5 µM)
Cc1c(CN(C)C(=O)/C=C/c2cnc3c(c2)CC[C@H](N2CCOCC2)C(=O)N3)oc2c(F)cccc12 (single isomer, unassigned) [Compound 113] | – | ≤ 4 mg/L | ≤ 4 mg/L | ≤ 4 mg/L | < 0.01 µM | – | – | 8 mg/L (≈ 16.2 µM)
Cc1c(CN(C)C(=O)/C=C/c2cnc3c(c2)CC[C@H](N)C(=O)N3)sc2ccccc12.Cl (single isomer, unassigned) [Compound 119, hydrochloride] | – | – | – | – | – | < 0.01 µM | < 0.01 µM | –
Cc1c(CN(C)C(=O)/C=C/c2cnc3c(c2)CC[C@H](N2CC(O)C2)C(=O)N3)oc2ccccc12 (single isomer, unassigned) [Compound 171] | – | ≤ 4 mg/L | ≤ 4 mg/L | ≤ 4 mg/L | < 0.01 µM | – | – | ≤ 4 mg/L
Cc1c(CN(C)C(=O)/C=C/c2cnc3c(c2)CC[C@H](N2CC4(COC4)C2)C(=O)N3)oc2ccccc12 (single isomer, unassigned) [Compound 190] | < 0.01 µM | ≤ 4 mg/L | ≤ 4 mg/L | ≤ 4 mg/L | < 0.01 µM | – | – | ≤ 4 mg/L
Cc1oc2c(N)cccc2c1CN(C)C(=O)/C=C/c1cnc2c(c1)CC[C@H](N)C(=O)N2 (single isomer, unassigned) [Compound 193] | < 0.01 µM | ≤ 4 mg/L | ≤ 4 mg/L | – | – | – | – | ≤ 4 mg/L
Cc1c(CN(C)C(=O)/C=C/c2cnc3c(c2)NC[C@H](N)C(=O)N3)oc2ccccc12 [Compound 8, (S,E)-3-(3-amino-4-oxo-2,3,4,5-tetrahydro-1H-pyrido[2,3-b][1,4]diazepin-8-yl)-N-methyl-N-((3-methylbenzofuran-2-yl)methyl)acrylamide] | < 0.01 µM | ≤ 4 mg/L | ≤ 4 mg/L | ≤ 4 mg/L | < 0.01 µM | – | – | ≤ 4 mg/L
Cc1c(CN(C)C(=O)/C=C/c2cnc3c(c2)CCC(N)C(=O)N3)oc2c(Cl)cccc12.O=C(O)C(F)(F)F (stereo not drawn) [Compound 92, (E)-3-(7-amino-8-oxo-6,7,8,9-tetrahydro-5H-pyrido[2,3-b]azepin-3-yl)-N-((7-chloro-3-methylbenzofuran-2-yl)methyl)-N-methylacrylamide 2,2,2-trifluoroacetate] | – | 8 mg/L | ≤ 4 mg/L | ≤ 4 mg/L | – | < 0.01 µM | – | ≤ 4 mg/L
Cc1oc2ccccc2c1CN(C)C(=O)/C=C/c1cnc2c(c1)CCC(N)C(=O)N2.Cl (stereo not drawn) [Compound 94, (E)-3-(7-amino-8-oxo-6,7,8,9-tetrahydro-5H-pyrido[2,3-b]azepin-3-yl)-N-methyl-N-((2-methylbenzofuran-3-yl)methyl)acrylamide hydrochloride] | – | ≤ 4 mg/L | ≤ 4 mg/L | ≤ 4 mg/L | – | < 0.01 µM | – | 16 mg/L
Cc1c(CN(C)C(=O)/C=C/c2cnc3c(c2)CCC(N(C)C)C(=O)N3)oc2ccccc12 (stereo not drawn) [Compound 95, (E)-3-(7-(dimethylamino)-8-oxo-6,7,8,9-tetrahydro-5H-pyrido[2,3-b]azepin-3-yl)-N-methyl-N-((3-methylbenzofuran-2-yl)methyl)acrylamide] | – | ≤ 4 mg/L | ≤ 4 mg/L | ≤ 4 mg/L | < 0.01 µM | – | – | ≤ 4 mg/L
Cc1oc2ccccc2c1CN(C)C(=O)/C=C/c1cnc2c(c1)CCC(N1CCOCC1)C(=O)N2 (stereo not drawn) [Compound 173, (E)-N-methyl-N-((2-methylbenzofuran-3-yl)methyl)-3-(7-morpholino-8-oxo-6,7,8,9-tetrahydro-5H-pyrido[2,3-b]azepin-3-yl)acrylamide] | < 0.01 µM | ≤ 4 mg/L | ≤ 4 mg/L | – | < 0.01 µM | – | – | –
Cc1c(CN(C)C(=O)/C=C/c2cnc3c(c2)CCC(N2CC4(CCOCC4)C2)C(=O)N3)oc2ccccc12 (stereo not drawn) [Compound 176, (E)-N-methyl-N-((3-methylbenzofuran-2-yl)methyl)-3-(8-oxo-7-(7-oxa-2-azaspiro[3.5]nonan-2-yl)-6,7,8,9-tetrahydro-5H-pyrido[2,3-b]azepin-3-yl)acrylamide] | – | ≤ 4 mg/L | ≤ 4 mg/L | ≤ 4 mg/L | < 0.01 µM | – | – | ≤ 4 mg/L
Cc1c(CN(C)C(=O)/C=C/c2cnc3c(c2)CCC(N2CCS(=O)(=O)CC2)C(=O)N3)oc2ccccc12 (stereo not drawn) [Compound 179, (E)-3-(7-(1,1-dioxidothiomorpholino)-8-oxo-6,7,8,9-tetrahydro-5H-pyrido[2,3-b]azepin-3-yl)-N-methyl-N-((3-methylbenzofuran-2-yl)methyl)acrylamide] | – | ≤ 4 mg/L | ≤ 4 mg/L | 8 mg/L (≈ 15.3 µM) | < 0.01 µM | – | – | 8 mg/L (≈ 15.3 µM)
Cc1c(CN(C)C(=O)/C=C/c2cnc3c(c2)CCC(N2CCCC2)C(=O)N3)oc2ccccc12 (stereo not drawn) [Compound 182, (E)-N-methyl-N-((3-methylbenzofuran-2-yl)methyl)-3-(8-oxo-7-(pyrrolidin-1-yl)-6,7,8,9-tetrahydro-5H-pyrido[2,3-b]azepin-3-yl)acrylamide] | < 0.01 µM | ≤ 4 mg/L | ≤ 4 mg/L | ≤ 4 mg/L | < 0.01 µM | – | – | ≤ 4 mg/L
Cc1oc2c(N)cccc2c1CN(C)C(=O)/C=C/c1cnc2c(c1)CCC(N1CCCC1)C(=O)N2 (stereo not drawn) [Compound 191, (E)-N-((7-amino-2-methylbenzofuran-3-yl)methyl)-N-methyl-3-(8-oxo-7-(pyrrolidin-1-yl)-6,7,8,9-tetrahydro-5H-pyrido[2,3-b]azepin-3-yl)acrylamide] | < 0.01 µM | ≤ 4 mg/L | ≤ 4 mg/L | – | – | – | – | 8 mg/L (≈ 16.9 µM)
